Experimental findings from patent US20110189260A1, “USE OF ZINC CHELATORS TO INHIBIT BIOFILM FORMATION” (UNIVERSITY OF CINCINNATI, priority 2008, published 2011) are described below.

Entries after “also recorded” stand apart in the source; their conditions may differ.

Common to all, as to format: cell-based
For assay [1], the system named is Methicillin-Resistant Staphylococcus epidermidis Strain RP62a. As to the kind of experiment: Biofilm formation assay in 96 well plates, crystal violet, absorbance at 570 nm (Example 8). To be noted: 18-24 hours, 37° C. The procedure: S. epidermidis strain RP62a (ATCC 35984) was obtained as a glycerol stock from ATCC. 3 ml overnight cultures were grown in tryptic soy broth (TSB, BD Biomedical), shaking at 37° C., and cultures were diluted 1:200 in TSB for use in the biofilm assay.
Each chelator (prepared in Examples 1-6) was added directly to a 96 well microtiter plate in a series of dilutions. 20 μl of each stock solution (200, 400, 800, 1600, 3200, 6400, 13000, or 26000 μM chelator) was added to each well. 200 μl of the 1:200 dilution of RP62a bacterial culture (as previously specified) was added to each well. Controls with bacterial culture media only and bacterial culture media plus vehicle controls only (i.e., final concentrations 10 mM HCl, 10% ethanol, or 10 mM NaOH) were added to wells alone without chelator. The 96 well plates were then incubated 18-24 hours statically at 37° C. Media was aspirated by pipet and wells were washed twice with filtered water. The plates were dried by inversion for 1 hour, and stained with 0.1% crystal violet for 15 minutes. Crystal violet was then aspirated by pipet and washed once with filtered water. The plates were then read on a spectrophotometer at a wavelength of 570 nm. An absorbance greater than 0.1 indicates biofilm formation.

The subject of assay [2] is Staphylococcus aureus Strain Rosenbach SA113. Description: Biofilm formation assay in FBS pre-treated 96 well plates, crystal violet (Example 9). To be noted: SA113, 2% glucose, 36-40 hours. The procedure: In addition, 96 well microtiter plates were pre-treated with fetal bovine serum (FBS) at 4° C. for at least 24 hours prior to use. The FBS was aspirated prior to addition of chelators and glucose for the assay. […] The 96 well plates were then incubated 36-40 hours statically at 37° C. Media was aspirated by pipet and wells were washed twice with filtered water. The plates were dried by inversion for 1 hour, and stained with 0.1% crystal violet for 15 minutes. Crystal violet was then aspirated by pipet and washed once with filtered water. The plates were then read on a spectrophotometer at a wavelength of 570 nm.

Assay [3] relates to Staphylococcus aureus Strain COL. As to the kind of experiment: Biofilm formation assay in FBS pre-treated 96 well plates, crystal violet (Example 10). The note with it: 2% sucrose, 36-40 hours. The procedure:
3 ml overnight cultures were grown in blood-heart infusion broth (BHI) shaking at 37° C., where cultures were diluted 1:25 for use in the biofilm assay.
2% sucrose (20 μl from a 20% sucrose stock) was added to each well prior to the addition of the bacterial culture to promote biofilm formation. In addition, 96 well microtiter plates were pre-treated with fetal bovine serum (FBS) at 4° C. for at least 24 hours prior to use. The FBS was aspirated prior to addition of chelators and sucrose for the assay. […] 20 μl of each stock solution (200, 400, 800, 1600, 3200, 6400, 13000, or 26000 μM chelator) was added to each well. 200 μl of the 1:25 dilution of COL bacterial culture (as previously specified) was added to each well. Controls with bacterial culture media only and bacterial culture media plus vehicle controls only (i.e, final concentrations 10 mM HCl, 10% ethanol, and 10 mM NaOH) were added to wells alone without chelator. The 96 well plates were then incubated 36-40 hours statically at 37° C. Media was aspirated by pipet and wells were washed twice with filtered water. The plates were dried by inversion for 1 hour, and stained with 0.1% crystal violet for 15 minutes. Crystal violet was then aspirated by pipet and washed once with filtered water. The plates were then read on a spectrophotometer at a wavelength of 570 nm. An absorbance greater than 0.1 indicates biofilm formation.

Assay [4] concerns Methicillin-Resistant Staphylococcus aureus Strain USA300. Description: Biofilm formation assay in fibronectin pre-treated 96 well plates, crystal violet (Example 11). The note with it: USA300, 2% glucose, 36-40 hours. The procedure:
S. aureus strain USA300 was obtained from Daniel Hassett (University of Cincinnati) as a glycerol stock. 3 ml overnight cultures were grown in blood-heart infusion broth (BHI) shaking at 37° C., where cultures were diluted 1:25 for use in the biofilm assay. 2% glucose (20 ul from a 20% glucose stock) was added to each well prior to the addition of bacterial culture to promote biofilm formation. In addition, 96 well microtiter plates were pre-treated with human fibronectin (BD biomedical purchased from Fisher scientific). The fibronectin was aspirated prior to addition of chelators and glucose for the assay. Each chelator (prepared in Examples 1-6) was added directly to a 96 well microtiter plate in a series of dilutions. 20 μl of each stock solution (200, 400, 800, 1600, 3200, 6400, 13000, or 26000 μM chelator) was added to each well. 200 μl of the 1:25 dilution of USA300 bacterial culture dilution (as previously specified) were added to each well. Controls with bacterial culture media only and bacterial culture media plus vehicle controls only (final concentrations 10 mM HCl, 10% ethanol, and 10 mM NaOH) were added to wells alone without chelator. The 96 well plates were then incubated 36-40 hours statically at 37° C. Media was aspirated by pipet and wells were washed twice with filtered water. The plates were dried by inversion for 1 hour, and stained with 0.1% crystal violet for 15 minutes. Crystal violet was then aspirated by pipet and washed once with filtered water. The plates were then read on a spectrophotometer at a wavelength of 570 nm. An absorbance greater than 0.1 indicates biofilm formation.

The subject of assay [5] is S. epidermidis RP62A biofilms. Description: RP62A biofilms on polystyrene visualized with crystal violet (FIG. 3A, 3C, 4, 7, 8). The note with it: RP62A; for effect of divalent cation salt on biofilm inhibition by DTPA: up to 60 μM salt, FIG. 7. The procedure:
FIG. 3. (A) S. epidermidis RP62A biofilms formed on polystyrene and were visualized with crystal violet; addition of the Zn^2+ chelator DTPA (≧30 μM) inhibits biofilm formation. Representative wells have been scanned (bottom). Untreated (“RP62A”) and vehicle (“HCl”) controls are shown. Error bars show standard deviation (* indicates p<0.05 relative to untreated control; n=3); (B) Methicillin-resistant S. aureus USA300 biofilms form on fibronectin-coated plates but are inhibited by addition of DTPA (≧30 μM). (*: p<0.05; n=4); (C) Addition of 5-20 μM ZnCl2 at a minimal inhibitory dose of DTPA (30 μM) rescues biofilm formation by RP62A.
FIG. 4. […] (*: p<0.05 relative to RP62A control at the relevant Zn^2+ concentration; n=3); (B) Dose response of biofilm inhibition by MBP-Brpt1.5 at a fixed 1 mM ZnCl2 concentration. (*: p<0.0005; n=3); (C) The “zinc zipper” model for intercellular adhesion in staphylococcal biofilms mediated by zinc-dependent self-association of G5 domains.
FIG. 7. […] All data at 30 μM DTPA show statistically significant decreases compared to no-treatment control (RP62A). Statistically significant increases over the 0 μM MnCl2/30 μM DTPA datapoint are marked with an asterisk (*).
To test the physiological role of Zn^2+-mediated G5 adhesion in the formation of staphylococcal biofilms, both S. epidermidis and S. aureus biofilms were grown in culture in the presence or absence of the Zn^2+ chelator diethylenetriaminepentaacetic acid (DTPA). DTPA was non-toxic at all concentrations tested (up to 100 μM). S. epidermidis strain RP62A formed robust biofilms when cultured in media alone, but biofilm growth was inhibited by non-toxic doses of DTPA (≧30 μM) (FIG. 3A).
To determine whether Zn^2+-dependent biofilm formation is specifically dependent upon G5 domain-mediated self-assembly, soluble Brpt1.5 was added to S. epidermidis RP62A biofilms as a maltose-binding protein (MBP) fusion. Because of the higher Zn^2+ concentrations required to induce dimerization in the short construct compared to full-length Aap, inhibition by MBP-Brpt1.5 was tested at Zn^2+ concentrations ranging up to 1 mM. RP62A biofilms were inhibited by soluble MBP-Brpt1.5 in the presence of 0.75 and 1 mM ZnCl2, whereas addition of MBP alone had no effect (FIG. 4A). […] Thus, addition of even a single intact zinc adhesion module in a soluble form is capable of inhibiting biofilm formation, highlighting the role of this domain as a Zn^2+-dependent adhesion module in staphylococcal biofilms.

`c1cnc2c(c1)ccc1cccnc12` [1,10-phenanthroline]: the “chelator concentration at which biofilms were diminished but not cleared” value in assay [1] stood at 80 µM; in assay [2] it was 320 µM; in assay [3] it was 80 µM; in assay [4] it was 160 µM. Moreover, the “chelator concentration at which biofilms were inhibited (absorbance of 0.1 or less)” value in assay [1] worked out at 640 µM; in assay [2], 1300 µM. The “chelator concentration above which biofilms were inhibited (absorbance of 0.1 or less)” value in assay [3] is > 320 µM; in assay [4] it was > 1.3 mM.
Regarding `[Ca+2].[Cl-].[Cl-]` [CaCl2], in assay [5] (30 μM DTPA), the “effect of divalent cation salt on biofilm inhibition by DTPA” value (from here on “effect … on biofilm inhibition by DTPA”) is listed as “does not reverse; also recorded: no effect”.
Take `CCN(CC)C(=S)S` [DEDTC, diethyldithiocarbamate]: the “chelator concentration at which biofilms were diminished but not cleared” value in assay [1] was determined as 20 µM; in assay [2] it was 80 µM; in assay [3], 20 µM. Further, the “chelator concentration at which biofilms were inhibited (absorbance of 0.1 or less)” value was determined as 1300 µM in assay [1] and 80 µM in assay [2]. In assay [3], the “chelator concentration above which biofilms were inhibited (absorbance of 0.1 or less)” value is > 80 µM.
Take `O=C(O)CNCCNCC(=O)O` [EDDA, ethylenediamine-N,N′-diacetic acid]: the “chelator concentration at which biofilms were diminished but not cleared” value came out at 80 µM in assay [1], 20 µM in assay [2] and 160 µM in assay [3]. The “chelator concentration at which biofilms were inhibited (absorbance of 0.1 or less)” value in assay [2] amounted to 640 µM.
In the case of `O=C(O)CN(CCN(CC(=O)O)CC(=O)O)CC(=O)O` [EDTA, ethylenediaminetetra-acetic acid], the “chelator concentration at which biofilms were diminished but not cleared” value in assay [1] was determined as 40 µM; in assay [2], 320 µM; in assay [3], 20 µM; in assay [4] it was 1300 µM. Besides, the “chelator concentration at which biofilms were inhibited (absorbance of 0.1 or less)” value in assay [1] worked out at 320 µM. The “chelator concentration above which biofilms were inhibited (absorbance of 0.1 or less)” value in assay [3] is > 160 µM; in assay [4] it was > 2.6 mM.
In the case of `[Cl-].[Cl-].[Mg+2]` [MgCl2], the “effect … on biofilm inhibition by DTPA” value in assay [5] (30 μM DTPA) is on record as “does not reverse; also recorded: no effect”.
With `[Cl][Mn][Cl]` [MnCl2], the “concentration that effected partial rescue of biofilm formation” value in assay [5] (30 μM DTPA, FIG. 7D) was ≥ 10 µM. Besides, the “effect … on biofilm inhibition by DTPA” value in assay [5] (30 μM DTPA) is “partial rescue”.
For `[Cl-].[Cl-].[Sr+2]` [SrCl2], the “effect … on biofilm inhibition by DTPA” value in assay [5] (30 μM DTPA) is “does not reverse; also recorded: no effect”.
As for `c1ccc(CN(CCN(Cc2ccccn2)Cc2ccccn2)Cc2ccccn2)nc1` [TPEN, N,N,N′,N′-tetrakis(2-pyrdiylmethyl)ethylenediamine], the “chelator concentration at which biofilms were inhibited (absorbance of 0.1 or less)” value in assay [1] stood at 20 µM; in assay [2], 40 µM. Further, the “chelator concentration at which biofilms were diminished but not cleared” value in assay [2] and in assay [4] was 20 µM throughout.

B1: MBP-Brpt1.5: soluble Brpt1.5 as a maltose-binding protein (MBP) fusion (protein)
chain: VDGDSITSTEEIPFDKKREFDPNLAPGTEKVVQKGEPGTKTITTPTTKNPLTGEKVGEGEPTEKITKQPVDEIVHYGGEQIPQGHKDEFDPNAPVDSKTEVPGKPGVKNPDTGEVVTPPVDDVTKYGPVDGDSITSTEEIPFDKKREFDPNLAPGTEKVVQKGEPGTKTITTPTTKNPLTGEKVGEGKSTEKVTKQPVDEIVEYGPTK
modifications: left off: large carriers
Turning to B1, the “inhibition of biofilms by soluble protein” value in assay [5] (fixed 750 μM ZnCl2, FIG. 8) was “Dose-dependent biofilm inhibition”; in assay [5] (in the presence of 0.75-1 mM ZnCl2, FIG. 4A), “inhibits RP62A biofilms in a dose-dependent manner; also recorded: inhibited”. The “concentration that completely abolished biofilm formation” value in assay [5] (fixed 1 mM ZnCl2, FIG. 4B) was in the range of 10 to 22 µM.
